“Also recorded” adds a separate entry of the source.
Tests used:
Format in all cases: cell-based, human
[1] = test system: APOBEC3B; test: inhibitor pretreatment before PMA-induced APOBEC3B upregulation in MCF10A cells (RT-qPCR)
Procedure: PMA is a well-known agonist of PKC, but it also affects other cellular processes. To determine whether APOBEC3B induction by PMA occurs through PKC signal transduction or an alternative mechanism, we leveraged a panel of existing PKC inhibitors that each vary with respect to class selectivity. MCF10A cells were pre-treated for 30 minutes with varying concentrations of the pan-PKC inhibitor Gö6983 (Gschwendt et al., FEBS Lett. 392:77-80, 1996) and then treated for six hours with PMA (25 ng/mL). […] As additional controls, MCF10A cells were pretreated in parallel with the phosphoinositol 3 kinase (PI3K) inhibitor, LY294002, and the mitogen-activated protein kinase kinase (MEK) inhibitor, U0126, prior to PMA induction (FIGS. 2B and 2C).
(§1) For induction experiments, 2.5×10^5 cells were plated in a 6-well plate 1 day prior to drug treatment. PMA was then added to the media and incubated at 37° C. with 5% CO2 for six hours unless otherwise indicated. Cells were harvested, RNA was extracted, and RT-qPCR was performed as previously reported (Refsland et al. 2010, Nucleic Acids Res 38:4274-4284). For experiments utilizing inhibitors, cells were pretreated with inhibitors 30 minutes prior to PMA induction (25 ng/mL). PMA (Thermo Fisher Scientific, Inc., Waltham, Mass.), cyclohexamide (Acros Organics, Thermo Fisher Scientific, Inc., Waltham, Mass.), Gö6983 (Cayman Chemical co., Ann Arbor, Mich.), LY294002 (EMD Chemicals, Merck KGaA, Darmstadt, Germany), U0126 (EMD Chemicals, Merck KGaA, Darmstadt, Germany), AEB071 (Medchemexpress, Monmouth Junction, N.J.), Gö6976 (Enzo Life Sciences, Inc., Farmingdale, N.Y.), BAY 11-7082 (R&D Systems, INc., Minneapolis, Minn.), and MG132 (Thermo Fisher Scientific, Inc., Waltham, Mass.) were stored as recommended. NIKi/Compound 31 was synthesized as described (Li et al., 2013, Bioorganic & Medicinal Chemistry Letters 23:1238-1244).

[2] = test system: cancer cell lines; test: cell cycle and cell viability of cancer cell lines treated with AEB071; conditions: 10 μM, 48 hours, data not shown
[3] = test system: APOBEC3B; test: endogenous APOBEC3B protein in cancer cell lines treated with AEB071 (immunoblot); conditions: 10 μM, 48 hours
Procedure: (§2) Each line was treated for 48 hours with 10 μM AEB071, and then APOBEC3B mRNA and protein levels were quantified by RT-qPCR and immunoblotting. […] This is important since higher concentrations of AEB071 are known to cause cell cycle perturbations and apoptosis in certain cell types.
(§3) The development and validation of the rabbit monoclonal antibody (mAb) against APOBEC3B is as described elsewhere (U.S. Provisional Patent Application No. 62/186,109, filed Jun. 29, 2015). The mAb used (referred to as 5210-87-13) effectively binds endogenous APOBEC3B in a variety of assays. The anti-tubulin antibody was obtained from Covance Inc., Princeton, N.J.

[4] = test system: APOBEC3B; test: endogenous APOBEC3B mRNA in cancer cell lines treated with AEB071 (RT-qPCR); conditions: 10 μM, 48 hours
Procedure: FIG. 4. The PKC-NFκB pathway drives endogenous APOBEC3B expression in cancer cells. (A) APOBEC3B mRNA levels in representative breast, ovarian, and head/neck cancer cell lines. mRNA expression is reported as the mean of three independent RT-qPCR reactions normalized to TBP (error bars report SD from triplicate assays). (B) Representative PKC inhibitor treated cancer cell line experiment. Each line was treated with AEB071 (10 μM) or vehicle control for 48 hours prior to analysis. The histogram reports APOBEC3B mRNA levels normalized to the vehicle treated control for each line.
Four breast cancer cell lines, four ovarian cancer cell lines, four bladder cancer cell lines, and four head/neck cancer cell lines were analyzed to determine whether the constitutively high levels of endogenous APOBEC3B observed in many human cancer cell lines occurs through the PKC pathway. The selected cell lines expressed a 10-fold range of endogenous APOBEC3B mRNA levels (FIG. 4A).
as §2

[5] = test system: RELA, NKB1, RELB and NFKB2; test: RNA-seq of NFκB subunit mRNA in MCF10A cells treated with PMA; conditions: PMA vs vehicle
Procedure: Canonical signaling is known to require IKKβ, whereas non-canonical NFκB signaling is strictly dependent on IKKα-catalyzed phosphorylation of p100. To distinguish between these pathways, MCF10A cells were pretreated with a titration of TPCA-1 concentrations spanning the IC50 values of both proteins, and then PMA was used to induce APOBEC3B upregulation. […] As an additional control, TNFα, which is regulated by the canonical pathway, was analyzed.
(§4) Two sets of MCF10A cells in duplicate were treated every eight hours with media supplemented with PMA or DMSO for 48 hours. At 48 hours, RNA was extracted using an RNeasy Mini Kit (Qiagen, Hilden, Germany). Total RNA was submitted to the University of Minnesota Genomics Center for sequencing on the Illumina HiSeq 2000 platform. Raw reads were analyzed using both DESeq2 (Love et al., 2014, Genome Biol. 15:550) and the Tuxedo suite (Trapnell et al., 2012, Nat Protoc.7:562-578) to identify changes in mRNA expression in PMA treated versus untreated cells.

[6] = test system: APOBEC3B; test: single-stranded DNA cytosine deaminase activity of whole cell extracts after PMA; conditions: MCF10A cell extracts
Procedure: (§5) APOBEC3B was induced with as little as 1 ng/mL PMA, and its induction was dose responsive and near maximal at 25 ng/mL PMA (FIG. 1B, histogram). APOBEC3B mRNA levels correlated with a rise in steady-state protein levels as measured by immunoblotting with a rabbit anti-APOBEC3B monoclonal antibody (described in U.S. Provisional Patent Application No. 62/186,109. filed Jun. 29, 2015) and with enzymatic activity as measured by a gel-based single-stranded DNA cytosine deamination assay (FIG. 1B). […] APOBEC3B protein and activity levels lagged shortly behind mRNA levels and persisted through the duration of the time course (FIG. 1C, immunoblot and polyacrylamide gel). APOBEC3B upregulation may be a direct result of signal transduction as the kinetics of upregulation were not affected by simultaneously treating cells with the protein translation inhibitor cyclohexamide (FIG. 1D).
Deaminase activity assays were performed as previously reported (Vieira et al., 2014, mBio 5(6):e02234-14). In short, 4 pmol of a fluorescently labeled oligo with a single target cytosine (5 -[…]-fluorescein, SEQ ID NO:2) was treated with cell extract containing 0.025 U/rxn UDG (New England BioLabs, Inc., Ipswich, Mass.), UDG buffer, and 1.75 U/rxn RNase A (Qiagen, Hilden, Germany) for two hours. […] Gels were scanned using a FujiFilm Image Reader FLA-7000.

[7] = test system: PKCα (PRKCA); test: RNA-seq of PKC isoform mRNA in MCF10A cells treated with PMA; conditions: PMA vs vehicle
Source text: PKCα mRNA levels were unchanged by PMA treatment, consistent with a mechanism by which PMA signals through pre-existing PKCα to ultimately stimulate APOBEC3B transcription (FIG. 2G). PKCα expression was depleted using three independent shRNA-encoding lentiviral constructs. […] Immunoblots confirmed PKCα knockdown and proportional reductions in APOBEC3B (FIG. 21). Altogether, the pharmacologic and genetic approaches provide a strong case for PKCα as the predominant PKC isoform driving PMA-mediated upregulation of APOBEC3B.
as §4

[8] = test system: APOBEC family members; test: mRNA levels of other APOBEC family members after PMA (RT-qPCR); conditions: MCF10A cells, six hours
Procedure: (§6) A panel of immortalized normal human epithelial cells lines and breast cancer cell lines was treated with PMA or equal amounts of DMSO as a negative control, and previously validated reverse transcription quantitative PCR (RT-qPCR) assays were used to measure mRNA levels of all eleven human APOBEC family members. APOBEC3B mRNA was induced specifically by PMA treatment of several lines including the immortalized normal breast epithelial cell line MCF10A (FIG. 1A and FIG. 6). Under standard cell culture conditions, MCF10A expresses low levels of APOBEC3B and APOBEC3F, even lower levels of APOBEC3G and APOBEC3H, high levels of APOBEC3C, and undetectable levels of all other APOBEC family members.
For induction experiments, 2.5×10^5 cells were plated in a 6-well plate 1 day prior to drug treatment. PMA was then added to the media and incubated at 37° C. with 5% CO2 for six hours unless otherwise indicated. Cells were harvested, RNA was extracted, and RT-qPCR was performed as previously reported (Refsland et al. 2010, Nucleic Acids Res 38:4274-4284). For experiments utilizing inhibitors, cells were pretreated with inhibitors 30 minutes prior to PMA induction (25 ng/mL). […]

[9] = test system: APOBEC3B; test: PMA induction of APOBEC3B mRNA in MCF10A cells (RT-qPCR)
Procedure: as §6, §5, §1

[10] = test system: APOBEC3B promoter region; test: chromatin immunoprecipitation (ChIP) at the APOBEC3B promoter after PMA; conditions: MCF10A cells, PMA 25 ng/mL two hours, ChIP-qPCR
Procedure: We next performed a series of chromatin immunoprecipitation (ChIP) experiments to determine whether the canonical or noncanonical NFκB pathway is responsible for upregulating APOBEC3B. Primer sets were designed for each of the predicted NFκB binding sites near the APOBEC3B transcriptional start site, as well as a control set in the promoter region of NFKIB (FIG. 3E). ChIP was performed for RELA, RELB, RNA POL II (positive control), and isotype matched IgG (negative control) RELA, RELB, and RNA POL II were all bound to the NFKIB promoter following PMA treatment (FIG. 3F and FIG. 3G). In addition, we found RNA POL II strongly bound to the APOBEC3B gene near the transcriptional start site (FIG. 3F and FIG. 3G). We also found RELB bound both near the transcriptional start site and at sites 4 and 5, which are located in intron 2 and too close together to be distinguished by this procedure. Binding also may occur at lower levels at site 3 in intron 1, but the IgG signal was too high to distinguish background from actual binding. These ChIP data strongly implicate the noncanonical NFκB pathway, specifically RELB (and not RELA), in directly inducing APOBEC3B transcription in response to PMA activation of PKC.
MCF10A cells were treated with either DMSO or 25 ng/mL PMA for two hours. […]

[11] = test system: APOBEC3B; test: APOBEC3B protein levels by immunoblotting after PMA; conditions: MCF10A cells
Procedure: as §5, §3

SMILES: CN1CCN(c2nc(C3=C(c4c[nH]c5ccccc45)C(=O)NC3=O)c3ccccc3n2)CC1 [AEB071, sotrastaurin]
- potency relative to Gö6983, BIM-1, or Gö6983 in suppressing PMA-induced APOBEC3B [1]: approximately 10 fold
- suppression of PMA-induced APOBEC3B mRNA induction ([1]; 30-minute pretreatment with inhibitor, then PMA 25 ng/mL six hours): inhibited; also recorded: clear dose dependent response
- concentration that caused complete suppression of APOBEC3B expression ([1]; pretreatment, PMA induced): 500 nM
- effects on the cell cycle or cell viability [2]: No effects on the cell cycle or cell viability
- changes of APOBEC3B protein levels [3]: largely mirrored the mRNA results
- cell lines in which APOBEC3B mRNA levels were reduced by more than half ([4]; 16 breast, ovarian, bladder, head/neck cancer cell lines): 7/16
- APOBEC3B mRNA levels ([4]; HCC1806 breast cancer cell line): reduced by more than half
- APOBEC3B mRNA levels ([4]; JSQ3 head/neck line): reduced by more than half
- APOBEC3B mRNA levels ([4]; MDA-MB-453 breast cancer cell line): reduced by more than half
- APOBEC3B mRNA levels ([4]; MDA-MB-468 breast cancer cell line): reduced by more than half
- APOBEC3B mRNA levels ([4]; OVCAR5 ovarian cancer cell line): reduced by more than half
- APOBEC3B mRNA levels ([4]; SQ-20B head/neck line): reduced by more than half
- APOBEC3B mRNA levels ([4]; TR146 head/neck line): reduced by more than half

SMILES: CCCCCCCCCCCCCC(=O)O[C@@H]1[C@@H](C)[C@@]2(O)[C@@H](C=C(CO)C[C@]3(O)C(=O)C(C)=C[C@@H]23)[C@@H]2C(C)(C)[C@]12OC(C)=O [PMA]
- mRNA levels of NFκB components RELA, NKB1, RELB, NFKB2 [5]: unaffected
- APOBEC3B activity levels (DNA cytosine deaminase) [6]: dose-responsive increases
- PKCα mRNA levels [7]: unchanged
- changes in the expression levels of other APOBEC family members [8]: no detectable changes
- time after PMA treatment at which maximal APOBEC3B mRNA levels were observed ([9]; PMA 25 ng/ml): by three hours post-treatment
- time after PMA treatment at which significant APOBEC3B mRNA induction was detected ([9]; PMA 25 ng/ml): 30 min
- PMA concentration at which APOBEC3B induction was near maximal ([9]; six hours): 25 ng/mL
- lowest PMA concentration that induced APOBEC3B ([9]; six hours): 1 ng/mL
- recruitment of RELB and p105/p52 to the APOBEC3B promoter region [10]: specifically and robustly recruited
- APOBEC3B protein levels [11]: dose-responsive increases
